Publication PMC3640759 (Molecular and biochemical parasitology, 2013)
Like-named read-outs stand apart in the source and are kept apart here. One block for each compound: values may come before it.

Tests used:
in vitro = details: human
[1] = tested on: P. falciparum 3D7 strain stage III–V gametocytes; experiment: alamarBlue gametocyte viability assay, 1,536-well plate format; format: cell-based, Plasmodium falciparum
[2] = cytotoxicity assay against SH-SY5Y neuroblastoma cells; details: human
[3] = tested on: SH-SY5Y neuroblastoma cell line; experiment: as above; details: SH-SY5Y cells; lowest compound concentration 0.37 μM
[4] = tested on: P. falciparum gametocytes; details: read-out: IC50 reported in 96-well plate format; cited from earlier work
[5] = Plasmodium falciparum, 3D7, 72 h, read-out: IC50 (gametocyte assay)

SMILES: CCN(CC)C(=S)SSC(=S)N(CC)CC [Antabuse]
IC50 (in vitro): 13400 nM
IC50 [1, 5]: 250 nM

SMILES: CNc1ccc2oc(C[C@H]3O[C@@]4(CC[C@H]3C)O[C@H]([C@H](C)C(=O)c3ccc[nH]3)[C@H](C)C[C@H]4C)nc2c1C(=O)O [Calcimycin]
IC50 [2]: 1370 nM
IC50 [1, 5]: 1960 nM

SMILES: c1ccc2c(c1)[I+]c1ccccc1-2 [Dibenziodolium]
cytotoxicity at lowest compound concentration tested [3]: completely cytotoxic

SMILES: CC[C@H](C)[C@H](NC(=O)[C@H]([C@@H](C)CC)N(C)C(C)=O)C(=O)N[C@H](C(=O)N[C@@H](CC(C)C)C(=O)[C@@]1(C)CO1)[C@@H](C)O [epoxomicin]
IC50 [4]: 2.16 nM
IC50 ([1]; seeding density 10 k gametocytes/well, 1,536-well plate): 1.3 nM
IC50 ([1]; seeding density 20 k gametocytes/well, 1,536-well plate): 1.8 nM
IC50 ([1]; seeding density 27.5 k gametocytes/well, 1,536-well plate): 2.1 nM

Now from value to compound, other results behind:

IC50 (in vitro): 9480 nM
SMILES: Clc1ccccc1C(c1ccccc1)(c1ccccc1)n1ccnc1 [Clotrimazole]

IC50 [1, 5]: 1170 nM
SMILES: Cc1cc(NC2CCCCC2)nc(-n2nc(C)cc2C)n1 [CyPPA, Cyclohexyl-[2-(3,5-dimethyl-pyrazol-1-yl)-6-methyl-pyrimidin-4-yl]-amine]
IC50 ([2]; SH-SY5Y neuroblastoma cells): 9160 nM

IC50 [1, 5]: 2190 nM
SMILES: c1cnc2c(c1)ccc1cccnc12 [Phenanthroline, 1,10-phenanthroline]
IC50 ([2]; SH-SY5Y neuroblastoma cells): 5450 nM
